Results on ten compounds are retold here after ChEMBL document CHEMBL1909046, “DrugMatrix in vitro pharmacology data”.

As a reminder, the IC50 is the concentration that gives 50% inhibition. One may read the Ki as the dissociation constant of the complex between target and ligand, obtained from inhibition or displacement.

The target in data set [1] is Matrix metalloproteinase-9 (Homo sapiens, UniProt P14780). Format: cell-based.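 Also: inhibition of isolated MMP-9 enzyme activity toward a synthetic peptide substrate, from the DrugMatrix protease screening panel; in other assays of this panel Not Active means under 50% inhibition at 10 µM.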
The target in a further data set is T1, Adenosine receptor A1 (Homo sapiens, UniProt P30542).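 Also: radioligand binding assay at the adenosine A1 receptor, with DPCPX serving as the labelled ligand; in other assays of this panel Not Active means under 50% inhibition at 10 µM.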
T1 sequence (P30542 whole entry): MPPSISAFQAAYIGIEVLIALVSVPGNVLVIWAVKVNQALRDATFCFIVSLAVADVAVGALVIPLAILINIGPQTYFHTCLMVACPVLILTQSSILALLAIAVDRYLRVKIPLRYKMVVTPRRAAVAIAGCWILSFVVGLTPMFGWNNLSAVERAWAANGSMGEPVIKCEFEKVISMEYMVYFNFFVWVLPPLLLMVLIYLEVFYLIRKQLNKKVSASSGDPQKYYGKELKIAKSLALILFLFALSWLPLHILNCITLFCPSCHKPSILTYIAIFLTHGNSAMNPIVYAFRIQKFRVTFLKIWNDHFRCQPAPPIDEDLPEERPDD
Format: cell membranes, CHO, Membrane. The following applies: cho.

Another data set concerns the target Cytochrome P450 2C9 (Homo sapiens, UniProt P11712). Particulars: bti-tn-5b1-4. Also: in other assays of this panel Not Active means under 50% inhibition at 10 µM.
Data set [2] can be described thus: DRUGMATRIX: Potassium Channel [KATP] radioligand binding (ligand: [3H] Glyburide). It is filed as cell membranes, Membrane. The following applies: hit-t15; Not Active = under 50% inhibition at 10 µM.
Data set [3] deals with T2, Alpha-1B adrenergic receptor (Rattus norvegicus, UniProt P15823).
T2 sequence (P15823 whole entry): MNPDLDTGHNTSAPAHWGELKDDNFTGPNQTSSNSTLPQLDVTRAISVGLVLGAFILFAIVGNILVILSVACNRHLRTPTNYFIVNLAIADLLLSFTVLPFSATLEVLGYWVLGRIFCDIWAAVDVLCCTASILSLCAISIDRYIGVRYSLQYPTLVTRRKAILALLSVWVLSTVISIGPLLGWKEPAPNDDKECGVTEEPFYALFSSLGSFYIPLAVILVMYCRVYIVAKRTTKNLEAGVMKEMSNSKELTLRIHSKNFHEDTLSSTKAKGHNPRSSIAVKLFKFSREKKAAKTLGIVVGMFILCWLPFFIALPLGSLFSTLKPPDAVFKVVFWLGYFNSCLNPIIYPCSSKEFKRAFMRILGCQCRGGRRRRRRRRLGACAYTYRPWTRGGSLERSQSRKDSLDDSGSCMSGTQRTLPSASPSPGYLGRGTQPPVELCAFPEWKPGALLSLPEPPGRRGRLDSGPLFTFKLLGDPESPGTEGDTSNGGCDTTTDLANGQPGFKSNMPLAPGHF
The experiment in a line: DRUGMATRIX: Alpha-1B adrenergic receptor radioligand binding (ligand: prazosin). It is filed as cell membranes, Wistar, Liver, Membrane. Particulars: Not Active = under 50% inhibition at 10 µM.

In data set [4] the target is Platelet-activating factor receptor (Homo sapiens, UniProt P25105). It is filed as tissue-based. Also: in other assays of this panel Not Active means under 50% inhibition at 10 µM.
Sequence of Platelet-activating factor receptor (P25105 whole entry): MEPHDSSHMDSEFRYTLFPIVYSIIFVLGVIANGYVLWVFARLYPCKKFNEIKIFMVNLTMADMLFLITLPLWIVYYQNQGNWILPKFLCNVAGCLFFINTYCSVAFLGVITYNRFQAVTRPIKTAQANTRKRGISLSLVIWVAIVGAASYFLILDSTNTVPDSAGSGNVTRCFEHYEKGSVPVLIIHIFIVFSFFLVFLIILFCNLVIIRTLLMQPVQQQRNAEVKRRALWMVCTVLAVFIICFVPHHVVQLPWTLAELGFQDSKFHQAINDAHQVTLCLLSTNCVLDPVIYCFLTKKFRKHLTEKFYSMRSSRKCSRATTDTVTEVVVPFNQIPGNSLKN

Sequence of Matrix metalloproteinase-9 (P14780 whole entry): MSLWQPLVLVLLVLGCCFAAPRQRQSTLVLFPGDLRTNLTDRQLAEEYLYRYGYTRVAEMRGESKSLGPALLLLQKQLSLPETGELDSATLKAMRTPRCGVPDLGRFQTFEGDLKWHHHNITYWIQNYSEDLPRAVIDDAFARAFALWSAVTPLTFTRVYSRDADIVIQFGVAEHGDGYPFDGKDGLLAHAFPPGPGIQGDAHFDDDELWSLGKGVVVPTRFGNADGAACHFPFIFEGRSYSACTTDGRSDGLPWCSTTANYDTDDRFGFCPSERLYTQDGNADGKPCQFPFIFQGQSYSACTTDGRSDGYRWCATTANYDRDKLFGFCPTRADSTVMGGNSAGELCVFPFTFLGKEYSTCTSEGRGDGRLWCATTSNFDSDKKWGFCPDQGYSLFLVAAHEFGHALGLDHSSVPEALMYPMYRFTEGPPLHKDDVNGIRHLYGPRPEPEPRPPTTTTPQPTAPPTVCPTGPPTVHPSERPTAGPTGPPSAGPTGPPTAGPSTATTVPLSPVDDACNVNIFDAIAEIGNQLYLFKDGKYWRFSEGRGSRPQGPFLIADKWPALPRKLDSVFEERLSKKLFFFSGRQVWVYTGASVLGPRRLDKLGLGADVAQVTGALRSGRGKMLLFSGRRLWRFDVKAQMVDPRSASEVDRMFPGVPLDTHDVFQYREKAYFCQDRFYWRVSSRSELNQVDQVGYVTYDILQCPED
Sequence of Cytochrome P450 2C9 (P11712 whole entry): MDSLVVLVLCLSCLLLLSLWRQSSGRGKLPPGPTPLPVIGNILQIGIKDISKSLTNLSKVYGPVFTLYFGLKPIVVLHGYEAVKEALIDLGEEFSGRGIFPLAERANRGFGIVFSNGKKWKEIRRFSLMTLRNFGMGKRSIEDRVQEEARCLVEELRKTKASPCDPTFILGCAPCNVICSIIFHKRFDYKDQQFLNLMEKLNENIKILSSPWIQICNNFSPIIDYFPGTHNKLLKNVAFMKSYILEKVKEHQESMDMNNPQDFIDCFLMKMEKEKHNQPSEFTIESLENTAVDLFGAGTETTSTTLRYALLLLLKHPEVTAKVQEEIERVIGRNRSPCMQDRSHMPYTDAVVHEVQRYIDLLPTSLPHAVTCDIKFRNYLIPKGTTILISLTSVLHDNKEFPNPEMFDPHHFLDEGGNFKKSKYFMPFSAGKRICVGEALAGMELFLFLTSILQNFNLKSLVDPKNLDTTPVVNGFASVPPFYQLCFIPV

In the case of `COc1ccnc(C[S+]([O-])c2nc3ccc(OC(F)F)cc3[nH]2)c1OC` (centres undefined) [PANTOPRAZOLE], the half-inhibitory concentration (IC50) result (in data set [1]; against Adenosine receptor A1; against Cytochrome P450 2C9; in data set [2]; in data set [3]; in data set [4]) was “Not Active” in each case. For the same compound, the Ki entry (on Cytochrome P450 2C9; in data set [2]) was “Not Active” in each case.
Regarding `CCc1ccc(CCOc2ccc(CC3SC(=O)NC3=O)cc2)nc1` (centres undefined) [PIOGLITAZONE], the half-maximal inhibitory concentration (IC50) entry (in data set [1]; against Adenosine receptor A1; against Cytochrome P450 2C9; in data set [2]; in data set [3]; in data set [4]) was “Not Active” throughout. In addition, the Ki entry (on Cytochrome P450 2C9; in data set [2]) was “Not Active” in each case.
On to `CCCNC(C)C(=O)Nc1ccccc1C` (centres undefined) [PRILOCAINE], for which the concentration for half-maximal inhibition (IC50) result (in data set [1]; at Adenosine receptor A1; on Cytochrome P450 2C9; in data set [2]; in data set [3]; in data set [4]) was “Not Active” throughout. Besides, the Ki entry (on Cytochrome P450 2C9; in data set [2]) was “Not Active” in each case.
For the compound `CCN(CC)CCNC(=O)c1ccc(N)cc1` [PROCAINAMIDE], the IC50 result (in data set [1]; at Adenosine receptor A1; at Cytochrome P450 2C9; in data set [2]; in data set [3]; in data set [4]) was “Not Active” each time. The Ki entry (at Cytochrome P450 2C9; in data set [2]) was “Not Active” throughout.
`CCN(CC)CCCC(C)Nc1c2ccc(Cl)cc2nc2ccc(OC)cc12` (centres undefined) [QUINACRINE]: the 50% inhibitory concentration (IC50) result in data set [1] was “Not Active”; on Adenosine receptor A1 it was “Not Active”; against Cytochrome P450 2C9 it was “Not Active”; in data set [2], “Not Active”; in data set [3] (read-out: IC50), 3410 nM; in data set [4] it was “Not Active”. Also, the Ki result on Cytochrome P450 2C9 is “Not Active”; in data set [2], “Not Active”; in data set [3] (read-out: Ki) it was 1890 nM.
For the compound `C[C@]12C=CC(=O)C=C1CC[C@H]1[C@@H]3C[C@@H](O)[C@](O)(C(=O)CO)[C@@]3(C)C[C@H](O)[C@@]12F` [TRIAMCINOLONE], the IC50 entry (in data set [1]; on Adenosine receptor A1; against Cytochrome P450 2C9; in data set [2]; in data set [3]; in data set [4]) was “Not Active” each time. In addition, the inhibitory constant (Ki) entry (on Cytochrome P450 2C9; in data set [2]) was “Not Active” each time.
With `CC[C@]1(O)C[C@@H]2CN(CCc3c([nH]c4ccccc34)[C@@](C(=O)OC)(c3cc4c(cc3OC)N(C)[C@H]3[C@@](O)(C(N)=O)[C@H](O)[C@]5(CC)C=CCN6CC[C@]43[C@@H]65)C2)C1` [VINDESINE], the half-maximal inhibitory concentration (IC50) entry (in data set [1]; on Adenosine receptor A1; against Cytochrome P450 2C9; in data set [2]; in data set [3]; in data set [4]) was “Not Active” each time. For the same compound, the Ki result (at Cytochrome P450 2C9; in data set [2]) was “Not Active” throughout.
`CCN(C(C)=O)c1cccc(-c2ccnc3c(C#N)cnn23)c1` [ZALEPLON]: the IC50 result (in data set [1]; on Adenosine receptor A1; against Cytochrome P450 2C9; in data set [2]; in data set [3]; in data set [4]) was “Not Active” each time. For the same compound, the inhibition constant (Ki) entry (on Cytochrome P450 2C9; in data set [2]) was “Not Active” throughout.
Take COBALTOUS CHLORIDE: the IC50 result (in data set [1]; against Adenosine receptor A1; on Cytochrome P450 2C9; in data set [2]; in data set [3]; in data set [4]) was “Not Active” in each case. For the same compound, the Ki result (in data set [1]; at Adenosine receptor A1; on Cytochrome P450 2C9; in data set [2]; in data set [3]; in data set [4]) was “Not Active” throughout.
For COLISTIN, the IC50 entry (in data set [1]; against Adenosine receptor A1; at Cytochrome P450 2C9; in data set [2]; in data set [3]; in data set [4]) was “Not Active” in each case. Moreover, the Ki entry (in data set [1]; on Adenosine receptor A1; on Cytochrome P450 2C9; in data set [2]; in data set [3]; in data set [4]) was “Not Active” in each case.
